For orientation: IC50 means the concentration that gives 50% inhibition. A high value points to weaker potency in that assay.

Structures are written as SMILES.

Test [1] deals with T1, Nitric oxide synthase, inducible (Mus musculus, UniProt P29477).
T1 sequence (P29477 whole entry): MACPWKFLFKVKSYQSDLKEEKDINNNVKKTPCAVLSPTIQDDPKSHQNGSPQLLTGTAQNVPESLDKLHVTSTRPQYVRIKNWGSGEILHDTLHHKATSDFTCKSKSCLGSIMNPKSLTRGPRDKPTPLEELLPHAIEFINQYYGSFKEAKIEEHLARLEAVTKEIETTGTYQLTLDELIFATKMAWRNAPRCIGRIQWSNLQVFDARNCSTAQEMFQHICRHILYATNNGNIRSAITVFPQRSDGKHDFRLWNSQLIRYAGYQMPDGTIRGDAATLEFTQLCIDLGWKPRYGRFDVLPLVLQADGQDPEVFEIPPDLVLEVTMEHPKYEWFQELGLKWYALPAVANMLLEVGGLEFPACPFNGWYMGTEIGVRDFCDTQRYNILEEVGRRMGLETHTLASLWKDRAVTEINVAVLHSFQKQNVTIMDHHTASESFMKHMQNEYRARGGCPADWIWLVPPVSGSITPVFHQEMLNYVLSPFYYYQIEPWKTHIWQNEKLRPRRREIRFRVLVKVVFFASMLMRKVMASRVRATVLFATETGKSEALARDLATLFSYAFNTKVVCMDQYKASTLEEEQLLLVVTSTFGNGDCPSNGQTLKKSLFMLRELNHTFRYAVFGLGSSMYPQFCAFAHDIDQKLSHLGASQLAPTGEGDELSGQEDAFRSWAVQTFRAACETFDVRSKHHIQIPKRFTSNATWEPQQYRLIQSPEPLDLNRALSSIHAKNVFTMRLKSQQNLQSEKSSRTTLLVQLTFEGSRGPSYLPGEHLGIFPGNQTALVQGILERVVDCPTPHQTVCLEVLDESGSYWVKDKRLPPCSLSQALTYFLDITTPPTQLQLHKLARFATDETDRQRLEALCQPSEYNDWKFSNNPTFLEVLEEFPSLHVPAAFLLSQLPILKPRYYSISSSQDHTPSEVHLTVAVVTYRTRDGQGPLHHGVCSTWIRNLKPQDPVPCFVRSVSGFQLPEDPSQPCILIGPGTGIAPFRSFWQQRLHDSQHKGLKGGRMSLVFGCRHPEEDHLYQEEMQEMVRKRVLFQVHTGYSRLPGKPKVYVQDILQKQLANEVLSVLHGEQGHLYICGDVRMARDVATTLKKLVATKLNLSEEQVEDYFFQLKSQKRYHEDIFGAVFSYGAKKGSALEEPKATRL
The test can be described thus: Compound was tested for inhibition of inducible Nitric oxide synthase in activated murine macrophages.

The nature of test [2]: Compound was tested for inhibition of constitutive bovine brain Nitric oxide synthase. The test is classed as tissue-based.

On to `c1ccc(-n2ccnc2)cc1`, for which the IC50 in test [1] was 8 µM.
The same measure, in the same setting: in the case of `O=c1nnc2ccc3c(c2[nH]1)=CCCC=3` it was 50 µM.
In the case of `O=[N+]([O-])c1ccc2cn[nH]c2c1`, the IC50 in test [2] came to 2.5 µM; in test [1], 20 µM.

For the origin of these results see ChEMBL document CHEMBL1151054, “Fungal metabolite of naftazone inhibits nitrite production by activated murine macrophages” (Bioorg Med Chem Lett, 1995).
